# From PubChem BioAssay (NCI)
#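 Briefly, cells in 96-well plates were exposed to five compound concentrations for 48 h, and endpoints were estimated by linear interpolation. The concentration for full growth arrest is given as TGI.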
# Tests used:
# Assay in all cases: DTP human tumour cell line panel, 48 h
# SR leukemia = tested on: SR leukemia
# SW-620 colon = tested on: SW-620 colon
# NCI/ADR-RES ovarian = tested on: NCI/ADR-RES ovarian
# SNB-19 CNS = tested on: SNB-19 CNS
# HT29 colon = tested on: HT29 colon
# MOLT-4 leukemia = tested on: MOLT-4 leukemia
# SK-MEL-2 melanoma = tested on: SK-MEL-2 melanoma
# HOP-92 NSCLC = tested on: HOP-92 NSCLC
# K-562 leukemia = tested on: K-562 leukemia
# A549 NSCLC = tested on: A549 NSCLC
# M14 melanoma = tested on: M14 melanoma
SMILES,TGI (SR leukemia),TGI (SW-620 colon),TGI (NCI/ADR-RES ovarian),TGI (SNB-19 CNS),TGI (HT29 colon),TGI (MOLT-4 leukemia),TGI (SK-MEL-2 melanoma),TGI (HOP-92 NSCLC),TGI (K-562 leukemia),TGI (A549 NSCLC),TGI (M14 melanoma)
Cc1nc2sc3ccccc3n2c(=O)c1N=Nc1ccc(Br)cc1,> 100 µM,> 100 µM,> 100 µM,> 100 µM,> 100 µM,> 100 µM,> 100 µM,> 100 µM,> 100 µM,> 100 µM,> 100 µM
COc1cc(OC)c2c(=O)cc(-c3ccccc3F)[nH]c2c1,> 100 µM,> 100 µM,> 100 µM,73.6 µM,> 100 µM,> 100 µM,> 100 µM,> 100 µM,> 100 µM,> 100 µM,> 100 µM
O=C1c2ccccc2C(=O)c2c(Nc3ccc4c5c(cccc35)C(=O)c3ccccc3-4)cccc21,> 100 µM,> 100 µM,> 100 µM,> 100 µM,> 100 µM,> 100 µM,> 100 µM,> 100 µM,> 100 µM,> 100 µM,> 100 µM
Cc1ccc(N=Nc2ccc(O)c(CN(C)C)c2)cc1C,> 100 µM,> 100 µM,52.6 µM,> 100 µM,38.5 µM,61.5 µM,34.7 µM,> 100 µM,43.5 µM,> 100 µM,81.1 µM
O=C1c2ccccc2C(=O)[C@@]23O[C@@]12C1(Oc2cccc4cccc(c24)O1)[C@@H]1O[C@@H]1[C@@H]3O,> 100 µM,> 49.1 µM,15.7 µM,28.8 µM,15.2 µM,24.5 µM,42.1 µM,31.9 µM,> 29.8 µM,> 49 µM,23.4 µM
Oc1cc(-c2ccccc2)cn2c1nc1ccccc12,> 28.5 µM,> 100 µM,11.8 µM,> 100 µM,> 77.7 µM,> 100 µM,> 100 µM,> 100 µM,> 100 µM,> 100 µM,> 100 µM
COC(=O)C1(c2cc3ccccc3n2S(=O)(=O)c2ccccc2)CC2C=CC1NC2 (stereo not given),0.427 µM,> 21.7 µM,6.95 µM,5.98 µM,4.44 µM,4.95 µM,3.63 µM,4.12 µM,5.01 µM,10.9 µM,3.44 µM
COc1cc(NC(C)=O)ccc1C(=O)N/N=C/c1ccc(Cl)cc1Cl,> 100 µM,> 100 µM,> 100 µM,> 100 µM,> 100 µM,> 100 µM,51.3 µM,> 100 µM,> 100 µM,> 100 µM,> 100 µM
COc1cc(/C=C2\C[C@H]3[C@@H]4CC=C5C=C(N6CCCC6)CC[C@]5(C)[C@H]4CC[C@]3(C)C2=O)cc(OC)c1OC,> 100 µM,> 41.6 µM,> 23.3 µM,18.4 µM,8.67 µM,> 28 µM,13 µM,5.67 µM,> 100 µM,> 51.7 µM,5.37 µM
O=C(NC(CS)C(=O)O)c1cccc2c(=O)c3ccccc3[nH]c12 (stereo not given),> 100 µM,> 100 µM,> 100 µM,> 100 µM,> 100 µM,> 100 µM,> 100 µM,> 100 µM,> 100 µM,> 100 µM,> 100 µM
CC(C)(C)OC(=O)c1cnc(Cl)cn1,> 100 µM,> 100 µM,> 100 µM,> 100 µM,> 100 µM,> 100 µM,80.6 µM,18.4 µM,> 100 µM,> 100 µM,> 100 µM
COc1cc(C2c3cc(O)c(OC)cc3C3OCC2C3CO)ccc1O (stereo not given),> 100 µM,> 100 µM,> 100 µM,> 100 µM,> 100 µM,> 100 µM,> 100 µM,> 100 µM,> 100 µM,> 100 µM,> 100 µM
N#CCCCC[N+]12CN3CN(CN(C3)C1)C2,> 100 µM,> 100 µM,> 100 µM,> 100 µM,> 100 µM,> 100 µM,> 100 µM,> 100 µM,> 100 µM,> 100 µM,> 100 µM
CC(C)(C)C(=O)C(C(=O)C(C)(C)C)C(=O)C(C)(C)C,> 100 µM,> 100 µM,> 100 µM,> 100 µM,> 100 µM,> 100 µM,> 100 µM,> 100 µM,> 100 µM,> 100 µM,> 100 µM
CCN1CCN(c2ccc(Nc3ccnc4ccc5c(nnn5C)c34)cc2)CC1,15.8 µM,19 µM,36.7 µM,15.1 µM,72.4 µM,35.1 µM,24.8 µM,21.8 µM,28.2 µM,22.3 µM,23.9 µM
CC(C)=CCNc1ncnc2nc[nH]c12,> 100 µM,> 100 µM,> 100 µM,> 100 µM,> 100 µM,> 100 µM,> 100 µM,> 100 µM,> 100 µM,> 100 µM,> 100 µM
Cc1ccc(NC(=O)CSc2nc(C)nc3c2sc(=S)n3-c2ccccc2)cc1,> 10 µM,> 10 µM,> 10 µM,> 10 µM,> 10 µM,> 10 µM,> 10 µM,9.04 µM,> 10 µM,> 10 µM,> 10 µM
COc1ccc(/C=C/C(=O)/C=C/c2ccc(OC)cc2)cc1,68.4 µM,52.5 µM,> 100 µM,> 100 µM,> 100 µM,> 100 µM,> 100 µM,80.6 µM,> 100 µM,> 100 µM,57.2 µM
O=C(CSc1nc2ccccc2s1)c1sc2sc3ccccc3[n+]2c1[O-],> 100 µM,> 100 µM,> 100 µM,> 100 µM,> 100 µM,> 100 µM,> 100 µM,> 100 µM,> 100 µM,> 100 µM,> 100 µM
O=C1CC(O)c2c(Br)sc(Br)c21 (stereo not given),29.6 µM,4.53 µM,> 100 µM,34.9 µM,43.1 µM,4.61 µM,28 µM,43.6 µM,8.3 µM,43.4 µM,28.8 µM
